Test [1] has as its target serotonin (5-HT) (Cavia porcellus, UniProt A0A286Y537). The experiment in a line: Anti-serotonin (5-HT) action (contraction of guinea pig superior mesenteric artery induced by serotonin). The class given is cell-based, Hartley male guinea pig. The note with it: contraction induced by 10^-5 M 5-HT = 100%, helical superior mesenteric artery preparation, Tyrode solution, 37° C; for remaining activity at 1 µM: test drug 10^-6 M, read-out: Anti 5-HT action (% of Control), 10^-6 M; for remaining activity at 0.1 µM: test drug 10^-7 M, read-out: Anti 5-HT action (% of Control), 10^-7 M. The procedure: (§1) With respect to the compounds of the present invention, their anti-α1 action and anti-serotonin (5-HT) action were investigated by the methods which will be described below.
(2) Anti-serotonin (5-HT) action
A preparation cut in a helical form was suspended under restomg tension of 0.3 g in a Magnus cylinder filled with the Tyrode solution which had been aerated with a gas mixture of 95% O2 and 5% CO2 and maintained at 37° C. Using an isometric transducer ("UL-10", manufactured by SHINKOH K.K.) and a pressure preamplifier ("DSA-605A", manufactured by SHINKOH K.K.), variations in tension were measured. The isometric tensions were recorded on a pen-writing recorder ("VP-6537A", manufactured by NATIONAL K.K.). Taking the contraction induced by 10^-5 M serotonin (5-HT) as 100%, the percent contractions by 10^-5 M 5-HT in the presence of each test drug at 10^-8 M, 10^-7 M and 10^-6 M were determined as anti-5-HT action.

The subject of test [2] is α1. Briefly: Anti-α1 action (contraction of guinea pig thoracic aorta induced by norepinephrine). It is filed as cell-based, Hartley male guinea pig. As to conditions: tonic contraction induced by 10^-5 M norepinephrine = 100%, helical thoracic aorta preparation, Tyrode solution, 37° C; for Anti α1 action (% of Control), 10^-7 M: test drug 10^-7 M, 0.1 µM; for Anti α1 action (% of Control), 10^-8 M: test drug 10^-8 M, 0.01 µM. The procedure: as §1
The thoracic aorta of each Hartley male guinea pig (body weight: 300-500 g) was excised. A preparation cut in a helical form was suspended under 1 g load in a Magnus cylinder filled with the Tyrode solution which had been aerated with a gas mixture of 95% O2 and 5% CO2 and maintained at 37° C. Using an isometric transducer ("TB-612J", manufactured by Nihon Kohden Corporation) and a pressure preamplifier ("AP-620G", manufactured by Nihon Kohden Corporation), variations in tension were measured. The isometric tensions were recorded on a thermal pen-writing recorder ("WT-647G", manufactured by Nihon Kohden Corporation). Taking the tonic contraction induced by 10^-5 M norepinephrine (NE) as 100%, the percent contractions upon addition of each test drug at 10^-8 M and 10^-7 M were determined as anti-α1 action.

Molecules are shown by their SMILES.

serotonin (5-HT), sequence (A0A286Y537 1-470): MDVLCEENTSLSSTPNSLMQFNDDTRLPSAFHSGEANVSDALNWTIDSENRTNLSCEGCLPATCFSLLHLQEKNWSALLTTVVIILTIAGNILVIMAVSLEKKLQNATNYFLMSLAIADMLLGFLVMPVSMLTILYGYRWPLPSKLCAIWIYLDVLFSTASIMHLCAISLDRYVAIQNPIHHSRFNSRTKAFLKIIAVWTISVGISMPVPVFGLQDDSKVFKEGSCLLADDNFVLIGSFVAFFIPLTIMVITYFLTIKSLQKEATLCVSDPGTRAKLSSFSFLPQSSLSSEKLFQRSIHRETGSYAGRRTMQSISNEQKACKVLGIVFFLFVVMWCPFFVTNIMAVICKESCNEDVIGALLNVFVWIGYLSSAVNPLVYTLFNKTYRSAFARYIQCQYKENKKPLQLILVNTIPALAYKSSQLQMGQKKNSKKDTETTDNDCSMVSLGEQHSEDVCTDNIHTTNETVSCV

Take `CN1CCC(=O)c2c(ccn2CCCCN2CCC(C(=O)c3ccc(F)cc3)CC2)C1=O` [Compound No. 15, 1-[4-[4-(4-fluorobenzoyl)piperidino]-butyl]-5-methyl-1,4,5,6,7,8-hexahydropyrrolo[3,2-c]azepine-4,8-dione]: in test [1], the remaining activity at 1 µM is 26.6% and the remaining activity at 0.1 µM came to 75.3%. Besides, in test [2], the “Anti α1 action (% of Control), 10^-7 M” value is 35.4 % of Control and the “Anti α1 action (% of Control), 10^-8 M” value is 59.9 % of Control.
As for `CN1CCC(=O)c2c(ccn2CCCCN2CCC(c3noc4cc(F)ccc34)CC2)C1=O` [Compound No. 17, 1-[4-[4-(6-fluoro-1,2-benzisoxazol-3-yl)piperidino]butyl]-5-methyl-1,4,5,6,7,8-hexahydropyrrolo[3,2-c]azepine-4,8-dione], in test [1], the remaining activity at 1 µM was determined as 8.9% and the remaining activity at 0.1 µM is 55.2%. Further, in test [1] (test drug 10^-8 M, read-out: Anti 5-HT action (% of Control), 10^-8 M), the remaining activity at 0.01 µM worked out at 80.7%. In test [2], the “Anti α1 action (% of Control), 10^-7 M” value is reported as 14.0 % of Control and the “Anti α1 action (% of Control), 10^-8 M” value was 27.8 % of Control.
Take `CN1CCC(=O)c2cn(CCCCN3CCC(C(=O)c4ccc(F)cc4)CC3)cc2C1=O` [Compound No. 18, 2-[4-[4-(4-fluorobenzoyl)piperidino]-butyl]-5-methyl-2,4,5,6,7,8-hexahydropyrrolo[3,4-c]azepine-4,8-dione]: in test [1], the remaining activity at 1 µM turned out to be 25.3% and the remaining activity at 0.1 µM was 81.7%. For the same compound, in test [2], the “Anti α1 action (% of Control), 10^-7 M” value was 37.3 % of Control and the “Anti α1 action (% of Control), 10^-8 M” value is listed as 76.0 % of Control.
In the case of `CN1CCC(=NO)c2cn(CCCCN3CCC(C(=O)c4ccc(F)cc4)CC3)cc2C1=O` [Compound No. 21, 2-[4-[4-(4-fluorobenzoyl)piperidino]-butyl]-8-hydroxyimino-5-methyl-2,4,5,6,7,8-hexahydropyrrolo[3,4-c]azepin-4-one], in test [1], the remaining activity at 1 µM is 24.9% and the remaining activity at 0.1 µM is 85.5%. Also, in test [2], the “Anti α1 action (% of Control), 10^-7 M” value is reported as 36.9 % of Control and the “Anti α1 action (% of Control), 10^-8 M” value is recorded as 69.7 % of Control.

For the origin of these results see patent US6187772A, “Pyrroloazepine compounds” (Suntory Limited, priority 1997, dated 2001).
